According to patent US9260417B2, “Therapeutic methods and compositions involving allosteric kinase inhibition” (AMITECH THERAPEUTIC SOLUTIONS, INC., priority 2010, dated 2016):

How the values were obtained:
[1] = biological target: DYRK1B (Homo sapiens (Human), UniProt Q9Y463); assay: KINOMEscan competitive binding assay; settings: 10 uM
[2] = tested on: neointimal hyperplasia; assay: Mouse carotid artery wire-injury model of neointimal hyperplasia; type: in vivo, mice
Experimental: (FIG. 11A) Mouse carotid arteries were wire-injured as described in the Methods. […] (FIG. 11C) The corresponding percent stenosis (reflecting luminal narrowing) was calculated as described herein, *p<0.01. Error bars are reported as ±SEM. (FIG. 11D) PDGFRβ autophosphorylation in the injured arteries was measured on day 14, 4 h post-dose.
Restenosis is a process that commonly results from balloon angioplasty and/or stent placement resulting in eventual occlusion of arteries by a process described as neointimal hyperplasia (NIH). […] Therefore, the combination of PDGFRβ/B-RAF inhibition would be an ideal treatment for NIH. […] Mouse carotid arteries were wire-injured and treated the following day with 100 mg/kg, qd, via oral gavage. Representative sections of the injured arteries, stained with hematoxylin and eosin (FIG. 11A), were used to calculate the intimal/medial ratio—a measurement of the thickness of the inner two layers of the artery wall, which correlates with the size of the vessel lumen. […] As a pharmacodynamic endpoint, representative arteries were excised 4 h after the final dose and lysates were immunoblotted to detect activated PDGFRβ.

[3] = tested on: SN12C-RFP renal cells; assay: Orthotopic renal cell carcinoma model; type: in vivo, mice; settings: 100 mg/kg, po, qd; day 26 (vehicle 132±39 mg)
Excerpt: (FIG. 10A) Real-time fluorescent imaging of SN12C-RFP renal cells orthotopically injected into […] of nu/nu mice. […] Drug treatments were started 7 days after orthotopic injection and tumor growth was visualized every 7 days by whole animal imaging. The images shown are of 4 mice in the vehicle and drug treated groups on day 26. Scale bar=10 mm. (FIG. 10B) At the end of the study, both the left tumor bearing kidney and right kidney were extracted and weighed.
Male Nu/Nu mice were anesthetized with an intraperitoneal injection of 50 mg/kg ketamine and […] medetomidine. A small incision was made along the left flank of the mice and the kidney was exposed. A 27-gauge insulin syringe was used for orthotopic injection of the SN12C-RFP cells. One million tumor cells in 20 μl of a 1:1 PBS:Matrigel mixture were injected into the lower pole of the kidney just below the renal subcapsule. […]
To test the effects of 6 on tumor growth after oral administration, human SN12C renal cells expressing RFP were injected into the kidney capsule of nude mice and tumors were allowed to develop for 7 days. […] Suppression of tumor growth was readily observed in those animals treated with 6 (FIG. 10A). On day 26, the kidneys were excised from these animals and the weight due to tumor was calculated by subtracting the weight of the normal kidney from the weight of the tumor-bearing kidney for each animal.

[4] = biological target: CSF1R (Homo sapiens (Human), UniProt P07333); assay: KINOMEscan competitive binding assay; settings: 10 uM
Chain of CSF1R (P07333 20-972): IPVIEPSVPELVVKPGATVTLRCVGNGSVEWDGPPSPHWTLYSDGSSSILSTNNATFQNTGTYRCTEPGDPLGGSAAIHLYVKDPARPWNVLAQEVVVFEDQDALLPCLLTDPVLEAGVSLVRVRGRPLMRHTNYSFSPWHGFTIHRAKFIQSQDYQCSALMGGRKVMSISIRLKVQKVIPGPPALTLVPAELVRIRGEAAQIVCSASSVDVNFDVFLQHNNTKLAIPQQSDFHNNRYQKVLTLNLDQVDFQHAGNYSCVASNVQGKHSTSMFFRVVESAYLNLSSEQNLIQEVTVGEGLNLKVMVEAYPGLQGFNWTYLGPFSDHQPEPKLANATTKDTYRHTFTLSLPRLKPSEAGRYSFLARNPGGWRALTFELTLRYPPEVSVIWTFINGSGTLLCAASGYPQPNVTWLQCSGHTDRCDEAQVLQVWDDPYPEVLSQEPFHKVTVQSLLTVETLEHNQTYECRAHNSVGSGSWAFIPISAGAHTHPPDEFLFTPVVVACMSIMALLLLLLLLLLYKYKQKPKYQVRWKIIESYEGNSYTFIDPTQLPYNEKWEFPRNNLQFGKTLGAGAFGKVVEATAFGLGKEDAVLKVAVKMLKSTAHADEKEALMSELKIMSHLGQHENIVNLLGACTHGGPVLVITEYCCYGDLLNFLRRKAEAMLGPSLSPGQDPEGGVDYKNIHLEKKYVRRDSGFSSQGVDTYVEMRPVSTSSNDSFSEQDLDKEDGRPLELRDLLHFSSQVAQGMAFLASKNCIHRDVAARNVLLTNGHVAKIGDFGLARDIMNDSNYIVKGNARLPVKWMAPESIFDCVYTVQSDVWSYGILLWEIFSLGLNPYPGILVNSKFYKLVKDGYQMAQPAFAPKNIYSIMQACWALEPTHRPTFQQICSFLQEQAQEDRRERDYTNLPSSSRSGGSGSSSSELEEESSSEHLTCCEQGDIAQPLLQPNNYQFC
Experimental: For the competitive binding assay, test compounds were screened at 10 μM against 70 diverse kinase targets for competitive binding using the KINOMEscan™ technology (Ambit Biosciences) (Karaman, et al. (2008) Nature biotechnology 26:127-132). 11-point Kd curves were determined for hits identified during the initial screen.

[5] = biological target: MLK3 (Homo sapiens (Human), UniProt Q16584); assay: KINOMEscan competitive binding assay; settings: 10 uM
Chain of MLK3 (Q16584 whole entry): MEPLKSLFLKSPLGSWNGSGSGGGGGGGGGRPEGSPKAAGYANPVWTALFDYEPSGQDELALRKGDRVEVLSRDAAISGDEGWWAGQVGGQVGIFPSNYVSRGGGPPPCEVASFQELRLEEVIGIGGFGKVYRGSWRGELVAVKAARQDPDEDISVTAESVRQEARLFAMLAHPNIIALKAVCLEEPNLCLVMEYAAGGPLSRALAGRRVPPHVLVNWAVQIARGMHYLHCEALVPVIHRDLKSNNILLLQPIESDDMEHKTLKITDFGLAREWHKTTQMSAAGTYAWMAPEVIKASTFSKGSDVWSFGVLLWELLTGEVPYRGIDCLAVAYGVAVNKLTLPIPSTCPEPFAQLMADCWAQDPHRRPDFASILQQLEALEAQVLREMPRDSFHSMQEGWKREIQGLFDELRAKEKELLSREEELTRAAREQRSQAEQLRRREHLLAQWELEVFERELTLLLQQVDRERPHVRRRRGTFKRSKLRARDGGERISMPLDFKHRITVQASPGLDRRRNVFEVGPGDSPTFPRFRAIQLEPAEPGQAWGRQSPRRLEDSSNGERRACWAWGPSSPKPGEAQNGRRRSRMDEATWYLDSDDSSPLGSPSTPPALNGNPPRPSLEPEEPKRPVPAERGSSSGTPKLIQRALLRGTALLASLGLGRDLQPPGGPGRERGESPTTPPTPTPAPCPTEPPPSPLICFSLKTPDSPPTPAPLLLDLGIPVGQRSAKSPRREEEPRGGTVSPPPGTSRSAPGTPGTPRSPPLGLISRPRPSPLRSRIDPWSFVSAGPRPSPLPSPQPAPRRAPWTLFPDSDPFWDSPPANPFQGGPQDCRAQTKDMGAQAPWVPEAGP

Chain of DYRK1B (Q9Y463 whole entry): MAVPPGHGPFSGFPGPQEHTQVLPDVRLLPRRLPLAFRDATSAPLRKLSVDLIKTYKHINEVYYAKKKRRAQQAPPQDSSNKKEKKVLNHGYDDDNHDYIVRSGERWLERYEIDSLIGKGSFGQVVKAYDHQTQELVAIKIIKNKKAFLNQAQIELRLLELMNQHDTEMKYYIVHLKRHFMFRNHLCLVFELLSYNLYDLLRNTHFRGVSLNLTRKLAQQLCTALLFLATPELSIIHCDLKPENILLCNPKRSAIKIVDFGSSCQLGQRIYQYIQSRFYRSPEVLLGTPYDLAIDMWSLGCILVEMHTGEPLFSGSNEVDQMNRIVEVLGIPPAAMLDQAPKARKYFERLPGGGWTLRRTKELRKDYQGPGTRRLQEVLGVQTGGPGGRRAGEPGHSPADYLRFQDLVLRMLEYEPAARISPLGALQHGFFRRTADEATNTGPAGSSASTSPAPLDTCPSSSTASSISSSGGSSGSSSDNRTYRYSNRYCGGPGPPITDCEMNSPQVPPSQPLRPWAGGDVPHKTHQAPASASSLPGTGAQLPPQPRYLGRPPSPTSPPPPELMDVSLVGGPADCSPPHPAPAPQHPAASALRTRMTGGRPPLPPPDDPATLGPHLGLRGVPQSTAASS

SMILES: CSc1nc(N)cc(Oc2ccc(-c3nnc(Nc4cccc(C(F)(F)F)c4)[nH]3)cc2)n1 [Compound 6]
- % Control [1]: 85%
- percent stenosis ([2]; 100 mg/kg, qd, oral gavage, 14 days): greatly reduced
- PDGFRβ activation in injured arteries ([2]; 4 h after the final dose): inhibited PDGFRβ activation
- average tumor burden (tumor-bearing kidney minus normal kidney weight) [3]: 49 ± 18 mg
- % Control [4]: 51%
- % Control [5]: 96%
